From patent publication US9120779B2, “Inhibitors of HCV NS5A” (PRESIDIO PHARMACEUTICALS, INC., priority 2008, dated 2015) come the findings set out here.

One test concerns HCV genotype 1b replicon in Huh 7 cells. The test is described as follows: HCV replicon assay (luciferase readout, 1b_Huh-Luc/Neo-ET cell line). It counts as cell-based. Conditions: Hepatitis C virus, Huh-7, 72 h, read-out: Inhibition of HCV genotype 1b, Table 1, 72 h incubation. As for the experimental part:
Biological activity of the compounds of the invention was determined using an HCV replicon assay. The 1b_Huh-Luc/Neo-ET cell line persistently expressing a bicistronic genotype 1b replicon in Huh 7 cells was obtained from R^eBLikon GMBH. This cell line was used to test compound inhibition using luciferase enzyme activity readout as a measurement of compound inhibition of replicon levels.
On Day 1 (the day after plating), each compound is added in triplicate to the cells. Plates incubated for 72 h prior to running the luciferase assay. Enzyme activity was measured using a Bright-Glo Kit (cat. number E2620) manufactured by Promega Corporation. The following equation was used to generate a percent control value for each compound. % Control=(Average Compound Value/Average Control)*100
The EC50 value was determined using GraphPad Prism and the following equation: Y=Bottom+(Top−Bottom)/(1+10^((Log IC50−X)*HillSlope))
EC50 values of compounds are repeated several times in the replicon assay.
Example compounds of the disclosed invention are illustrated in Tables 1-9 attached as appendices. The tables show inhibitory activity of many of the example compounds with respect to HCV 1b. […] The tables further provide mass spectrometry results for the synthesized example compounds.
A general note: Replicon systems follow genome replication, usually without infectious particles.
Turning to `O=C(N[C@H]1CC[C@H](c2cccc(-c3cnc([C@@H]4CCCN4C(=O)[C@H](NC(=O)N4CCOCC4)c4ccccc4)[nH]3)c2)CC1)[C@@H]1CCCN1C(=O)[C@H](NC(=O)N1CCOCC1)c1ccccc1` [compound 364], the EC50 lay in the range of 1 to 9.9 nM.
Same read-out and setting: in the case of `COC(=O)N[C@H](C(=O)N1CCC[C@H]1c1ncc(-c2ccc([C@H]3CC[C@H](c4cnc([C@@H]5CCCN5C(=O)[C@H](NC(=O)N5CCC(O)CC5)c5ccccc5)[nH]4)CC3)cc2)[nH]1)C(C)C` [compound 2003] it was below 1 nM.

The same test, now with this note: Hepatitis C virus, Huh-7, 72 h, read-out: Inhibition of HCV genotype 1b, Table 3, 72 h incubation.
As to `COC(=O)N[C@@H](C(=O)N1CCC[C@H]1C(=O)NC1CCN(c2ccc(-c3cnc([C@@H]4CCCN4C(=O)[C@H](NC(=O)OC)c4ccccc4)[nH]3)cc2F)CC1)c1ccccc1` [compound 454], the EC50 was below 1 nM.
For `COC(=O)N[C@@H](C(=O)N1CCC[C@H]1c1ncc(-c2cc(F)c(N3CCC(c4cnc([C@@H]5COCCN5C(=O)[C@H](NC(=O)OC(C)(C)C)c5ccccc5)[nH]4)CC3)c(F)c2)[nH]1)c1ccccc1` [compound 489], the EC50 is below 1 nM.
On the same count and under the same terms, in the case of `COC(=O)N[C@@H](C(=O)N1CCC[C@H]1c1ncc(-c2cc(F)c(N3CCC(C)(c4cnc([C@@H]5CCCN5C(=O)[C@H](NC(=O)OC)c5ccccc5)[nH]4)CC3)c(F)c2)[nH]1)c1ccccc1` [compound 2028] it was below 1 nM; in that of `CCN(CC)[C@@H](C(=O)N1CCC[C@H]1c1ncc(C2CCN(c3c(F)cc(-c4cnc([C@@H]5CCCN5C(=O)[C@H](NC(=O)OC)c5ccccc5)[nH]4)cc3F)CC2)[nH]1)c1ccccc1` [compound 467], below 1 nM.
Consider `COC(=O)N[C@@H](C(=O)N1CCC[C@H]1c1ncc(C2CCN(c3c(F)cc(-c4cnc([C@@H]5CCCN5C(=O)[C@H](NC(=O)N5CCOCC5)c5ccccc5)[nH]4)cc3F)CC2)[nH]1)c1ccccc1` [compound 481], for which the EC50 is below 1 nM.
Same read-out and setting: in the case of `COC(=O)N[C@H](C(=O)N1CCC[C@H]1c1ncc(C2CCN(c3c(F)cc(-c4cnc([C@@H]5CCCN5C(=O)[C@H](NC(=O)OC)c5ccccc5)[nH]4)cc3F)CC2)[nH]1)[C@@H](C)OC` [compound 466] it was below 1 nM; in that of `CN(C)C(=O)N[C@@H](C(=O)N1CCC[C@H]1C(=O)NC1CCN(c2ccc(-c3cnc([C@@H]4CCCN4C(=O)[C@H](NC(=O)N(C)C)c4ccccc4)[nH]3)cc2F)CC1)c1ccccc1` [compound 457], below 1 nM.
As for `COC(=O)N[C@@H](C(=O)N1CCC[C@H]1c1ncc(-c2ccc(N3CCC(c4cnc([C@@H]5CCCN5C(=O)[C@H](NC(=O)OC)c5ccccc5)[nH]4)CC3)c(F)c2)[nH]1)c1ccccc1` [compound 452], the EC50 was below 1 nM.
As to `COC(=O)N[C@@H](C(=O)N1CCC[C@H]1c1ncc(-c2cc(F)c(N3CCC(c4cnc([C@@H]5CCCN5C(=O)[C@H](NC(=O)N5CCN(C)CC5)c5ccccc5)[nH]4)CC3)c(F)c2)[nH]1)c1ccccc1` [compound 462], the EC50 is below 1 nM.
The same measure, in the same setting: then `COC(=O)N[C@@H](C(=O)N1CCC[C@H]1c1ncc(-c2cc(F)c(N3CCC(c4cnc([C@@H]5CCCN5C(=O)[C@H](NC(=O)N5CCCCC5)c5ccccc5)[nH]4)CC3)c(F)c2)[nH]1)c1ccccc1` [compound 488], with below 1 nM.

The same test, now with this note: Hepatitis C virus, Huh-7, 72 h, read-out: Inhibition of HCV genotype 1b, Table 4, 72 h incubation.
On to `COC(=O)N[C@H](C(=O)N1CCC[C@H]1c1nc2ccc(-c3ccc(-c4ccc5nc([C@@H]6CCCN6C(=O)[C@@H](NC(=O)OC)C6CCOCC6)[nH]c5c4)cc3)cc2[nH]1)C1CCOCC1` [compound 2039], for which the EC50 is below 1 nM.
Same read-out and setting: in the case of `COC(=O)N[C@H](C(=O)N1CCC[C@H]1c1nc2ccc(-c3ccc(-c4ccc5nc([C@@H]6CCCN6C(=O)[C@H](C(C)C)N(C)C)[nH]c5c4)cc3)cc2[nH]1)C(C)C` [compound 933] it was below 1 nM.

Still in this test, the particulars now being: Hepatitis C virus, Huh-7, 72 h, read-out: Inhibition of HCV genotype 1b, Table 5, 72 h incubation.
On to `COC(=O)N[C@H](C(=O)N1CCC[C@H]1c1ncc(-c2ccc(C34CCC(c5cnc([C@@H]6CCCN6C(=O)[C@@H](C)NC(=O)OC)[nH]5)(CC3)CC4)cc2)[nH]1)C(C)C` [compound 2062], for which the EC50 is below 1 nM.
As to `O=C(N[C@@H](C(=O)N1CCC[C@H]1CNC(=O)C12CCC(c3ccc(-c4cnc([C@@H]5CCCN5C(=O)[C@H](NC(=O)N5CCOCC5)c5ccccc5)[nH]4)cc3)(CC1)CC2)c1ccccc1)N1CCOCC1` [compound 603], the EC50 was in the range of 1 to 9.9 nM.
Still for that read-out and setting: in the case of `COC(=O)N[C@H](C(=O)N1CCC[C@H]1c1ncc(-c2ccc(C34CCC(c5cnc([C@@H]6CCCN6C(=O)[C@H](C(C)C)N(C)C)[nH]5)(CC3)CC4)cc2)[nH]1)C(C)C` [compound 2056] it was below 1 nM; in that of `COC(=O)N[C@H](C(=O)N[C@@H](C)c1ncc(-c2ccc(C34CCC(c5cnc([C@@H]6CCCN6C(=O)[C@@H](c6ccccc6)N(C)C)[nH]5)(CC3)CC4)cc2)[nH]1)C(C)C` [compound 2085], below 1 nM.
Regarding `COC(=O)N[C@H](C(=O)N1CCC[C@H]1c1ncc(-c2ccc(C34CCC(c5cnc([C@@H]6CCCN6C(=O)[C@H](NC(=O)N6CC[C@@H](O)C6)c6ccccc6)[nH]5)(CC3)CC4)cc2)[nH]1)C(C)C` [compound 2088], the EC50 was below 1 nM.
In the case of `COC(=O)N[C@@H](C(=O)N1CCC[C@H]1c1ncc(-c2ccc(C34CCC(c5cnc([C@@H]6CCCN6C(=O)[C@@H](NC(=O)N6CCN(C)CC6)C(C)C)[nH]5)(CC3)CC4)cc2)[nH]1)c1ccccc1` [compound 637], the EC50 was in the range of 1 to 9.9 nM.
On the same count and under the same terms, then `COC(=O)N[C@H](C(=O)N1CCC[C@H]1c1ncc(-c2ccc(C34CCC(c5cnc([C@@H]6CCCN6C(=O)[C@H](NC(=O)OC6CCOCC6)C(C)C)[nH]5)(CC3)CC4)cc2)[nH]1)C(C)C` [compound 2084], with below 1 nM; and `COC(=O)N[C@@H](C(=O)N[C@@H](C)c1ncc(C23CCC(c4ccc(-c5cnc([C@@H]6CCCN6C(=O)[C@H](NC(=O)OC)c6ccccc6)[nH]5)cc4)(CC2)CC3)[nH]1)c1ccccc1` [compound 2098], with below 1 nM; and `COC(=O)N[C@@H](C)C(=O)N1CCC[C@H]1c1ncc(-c2ccc(C34CCC(c5cnc([C@@H]6CCCN6C(=O)[C@@H](NC(=O)OC)C(C)C)[nH]5)(CC3)CC4)cc2)[nH]1` [compound 2081], with below 1 nM.
On the same count and under the same terms, in the case of `CC[C@H](C)[C@H](NC(=O)OC)C(=O)N1CCC[C@H]1c1ncc(-c2ccc(C34CCC(c5cnc([C@@H]6CCCN6C(=O)[C@@H](NC(=O)OC)C(C)C)[nH]5)(CC3)CC4)cc2)[nH]1` [compound 2073] it was below 1 nM; in that of `COC(=O)N[C@H](C(=O)N1CCC[C@H]1c1ncc(C23CCC(c4ccc(-c5cnc([C@@H]6CCCN6C(=O)[C@@H](NC(=O)N6CCN(C)CC6)C(C)C)[nH]5)cc4)(CC2)CC3)[nH]1)C(C)C` [compound 646], 10 to 999 nM; in that of `COC(=O)N(C)[C@H](C(=O)N1CCC[C@H]1c1ncc(-c2ccc(C34CCC(c5cnc([C@@H]6CCCN6C(=O)[C@H](C(C)C)N(C)C(=O)OC)[nH]5)(CC3)CC4)cc2)[nH]1)C(C)C` [compound 913], below 1 nM.
On the same count and under the same terms, in the case of `COC(=O)N[C@H](C(=O)N1CCC[C@H]1c1ncc(C23CCC(c4ccc(-c5cnc([C@@H]6CCCN6C(=O)[C@@H](NC(=O)N6CCCCC6)C(C)C)[nH]5)cc4)(CC2)CC3)[nH]1)C(C)C` [compound 648] it was 10 to 999 nM; in that of `COC(=O)N[C@H](C(=O)N1CCC[C@H]1c1ncc(-c2ccc(C34CCC(c5cnc([C@@H]6CCCN6C(=O)[C@@H](NC(=O)N6CCCCC6)C(C)C)[nH]5)(CC3)CC4)cc2)[nH]1)C(C)C` [compound 640], above 1000 nM; in that of `CNC(=O)N[C@H](C(=O)N1CCC[C@H]1c1ncc(C23CCC(c4ccc(-c5cnc([C@@H]6CCCN6C(=O)[C@@H](NC(=O)OC)C(C)C)[nH]5)cc4)(CC2)CC3)[nH]1)C(C)C` [compound 2099], below 1 nM.
Turning to `COC(=O)N[C@H](C(=O)N1CCC[C@H]1c1ncc(C23CCC(c4ccc(-c5cnc([C@@H]6CCCN6C(=O)[C@H](NC(=O)N6CCC(O)CC6)C(C)C)[nH]5)cc4)(CC2)CC3)[nH]1)C(C)C` [compound 2076], the EC50 is below 1 nM.
The same measure, in the same setting: in the case of `CC(C)[C@H](NC(=O)N1CCC(=O)CC1)C(=O)N1CCC[C@H]1c1ncc(-c2ccc(C34CCC(c5cnc([C@@H]6CCCN6C(=O)[C@@H](NC(=O)N6CCC(=O)CC6)C(C)C)[nH]5)(CC3)CC4)cc2)[nH]1` [compound 638] it was above 1000 nM; in that of `COC(=O)N[C@H](C(=O)N1CCC[C@H]1c1ncc(C23CCC(c4ccc(-c5cnc([C@@H]6CCCN6C(=O)[C@@H](c6ccccc6)N(C)C)[nH]5)cc4)(CC2)CC3)[nH]1)C(C)C` [compound 2067], below 1 nM.
Still for that read-out and setting: in the case of `COC(=O)N[C@H](C(=O)N1CCC[C@H]1c1ncc(C23CCC(c4ccc(-c5cnc([C@@H]6CCCN6C(=O)[C@@H](C)NC(=O)OC)[nH]5)cc4)(CC2)CC3)[nH]1)C(C)C` [compound 2082] it was below 1 nM.
`COC(=O)N[C@@H](CC(C)C)C(=O)N1CCC[C@H]1c1ncc(-c2ccc(C34CCC(c5cnc([C@@H]6CCCN6C(=O)[C@H](CC(C)C)NC(=O)OC)[nH]5)(CC3)CC4)cc2)[nH]1` [compound 2091]: the EC50 was below 1 nM.
Still for that read-out and setting: then `CNC(=O)N[C@@H](C(=O)N1CCC[C@H]1c1ncc(C23CCC(c4ccc(-c5cnc([C@@H]6CCCN6C(=O)[C@@H](NC(=O)OC)C(C)C)[nH]5)cc4)(CC2)CC3)[nH]1)c1ccccc1` [compound 2089], with below 1 nM.
